Source: the supplement of paper PMC11061612

Experiments:
[1] = system: U-266 (Plasma Cell Myeloma); assay: combination Emax (second highest fraction inhibited in the dose matrix, 72 h); higher = more inhibition; extreme values may be limits of the assay
In short: (§1)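 After 24 hours at 37°C and 5% CO2 in 1536-well plates, cells in DMEM/F12 or RPMI plus 10% FBS received two-drug dose matrices for 72 hours. Viability came from CellTiter-Glo 2.0 luminescence and was scaled as inhibition, anchored at 0 by vehicle wells and at 1 by blank wells. Combination Emax is taken as the second-highest inhibition in the matrix, and Bliss excess as the observed combination effect less EA + EB − EA·EB, with EA and EB the single-agent effects.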

[2] = system: COR-L95 (Small Cell Lung Carcinoma); assay: as above
In short: as §1

[3] = system: G-292-Clone-A141B1 (Osteosarcoma); assay: as above
In short: as §1

[4] = system: SW1783 (Low Grade Glioma); assay: as above
In short: as §1

[5] = system: NCI-H211 (Small Cell Lung Carcinoma); assay: as above
In short: as §1

[6] = system: NCI-H1299 (Non-Small Cell Lung Carcinoma); assay: as above
In short: as §1

[7] = system: KARPAS-1106P (B-Cell Non-Hodgkin's Lymphoma); assay: as above
In short: as §1

[8] = system: NALM-6 (B-Lymphoblastic Leukemia); assay: Bliss excess, mean over the matrix (fraction); higher = more synergy
In short: as §1

[9] = system: KATOIII (Gastric Carcinoma); assay: as above
In short: as §1

NCI-H2595 (Mesothelioma) = assay: as above
In short: as §1

[10] = system: MDA-MB-231 (Breast Carcinoma); assay: as above
In short: as §1

[11] = system: U-266 (Plasma Cell Myeloma); assay: as above
In short: as §1

[12] = system: COR-L95 (Small Cell Lung Carcinoma); assay: as above
In short: as §1

[13] = system: KARPAS-620 (Plasma Cell Myeloma); assay: as above
In short: as §1

[14] = system: HT-29 (Colorectal Carcinoma); assay: as above
In short: as §1

[15] = system: IHH-4 (Thyroid Gland Carcinoma); assay: as above
In short: as §1

[16] = system: DB (B-Cell Non-Hodgkin's Lymphoma); assay: as above
In short: as §1

[17] = system: SW1990 (Pancreatic Carcinoma); assay: as above
In short: as §1

[18] = system: NCI-H211 (Small Cell Lung Carcinoma); assay: as above
In short: as §1

[19] = system: NCI-H1299 (Non-Small Cell Lung Carcinoma); assay: as above
In short: as §1
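Wherever Bliss excess, mean over the matrix is given: after 72 h of two-drug dosing.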

SMILES: C[C@@H](Oc1cc(-c2cnn(C3CCNCC3)c2)cnc1N)c1c(Cl)ccc(F)c1Cl [Crizotinib] + CC1=C(C(=CC=C1)Cl)NC(=O)C2=CN=C(S2)NC3=CC(=NC(=N3)C)N4CCN(CC4)CCO [Dasatinib] (first compound max 10 µM, 7x7, partner max 2 µM)
- combination Emax [1]: 0.499
- combination Emax [2]: 0.354
- combination Emax [3]: 0.762
- combination Emax [4]: 0.784
- combination Emax [5]: 0.964
- combination Emax [6]: 0.734
- combination Emax [7]: 0.954
- Bliss excess [8]: 0.022
- Bliss excess [9]: -0.0263
- Bliss excess (NCI-H2595 (Mesothelioma)): 0.0519
- Bliss excess [10]: 0.0116
- Bliss excess [11]: -0.0102
- Bliss excess [12]: -0.0662
- Bliss excess [13]: 0.0032
- Bliss excess [14]: -0.0002
- Bliss excess [15]: 0.0456
- Bliss excess [16]: -0.0805
- Bliss excess [17]: -0.0312
- Bliss excess [18]: -0.0089
- Bliss excess [19]: 0.123

SMILES: C[C@@H](Nc1cc(F)cc(F)c1)c1cc(C(=O)N(C)C)cc2c(=O)cc(N3CCOCC3)oc12 [AZD8186] + C1CN(CCC1(C(=O)N[C@@H](CCO)C2=CC=C(C=C2)Cl)N)C3=NC=NC4=C3C=CN4 [AZD5363] (first compound max 10 µM, 7x7, partner max 10 µM)
- combination Emax [1]: 0.138
- combination Emax [2]: 0.225
- combination Emax [3]: 0.515
- combination Emax [4]: 0.479
- combination Emax [5]: 0.406
- combination Emax [6]: 0.314
- combination Emax [7]: 0.755
- Bliss excess [8]: -0.0357
- Bliss excess [9]: -0.0739
- Bliss excess (NCI-H2595 (Mesothelioma)): -0.0537
- Bliss excess [10]: 0.0036
- Bliss excess [11]: -0.0427
- Bliss excess [12]: -0.0781
- Bliss excess [13]: 0.0152
- Bliss excess [14]: -0.0172
- Bliss excess [15]: 0.0233
- Bliss excess [16]: -0.0191
- Bliss excess [17]: -0.0436
- Bliss excess [18]: -0.0006
- Bliss excess [19]: 0.0024

SMILES: N#Cc1cnc(Nc2cc(NC[C@H]3CNCCO3)c(C(F)(F)F)cn2)cn1 [SRA737] + O=c1[nH]cc(F)c(=O)[nH]1 [5-Fluorouracil] (first compound max 10 µM, 7x7, partner max 20 µM)
- combination Emax [1]: 0.633
- combination Emax [2]: 0.232
- combination Emax [3]: 0.121
- combination Emax [4]: 0.318
- combination Emax [5]: 0.8
- combination Emax [6]: 0.448
- combination Emax [7]: 0.881
- Bliss excess [8]: 0.0117
- Bliss excess [9]: -0.0805
- Bliss excess (NCI-H2595 (Mesothelioma)): -0.0448
- Bliss excess [10]: -0.0492
- Bliss excess [11]: 0.0562
- Bliss excess [12]: -0.0218
- Bliss excess [13]: 0.0096
- Bliss excess [14]: 0.021
- Bliss excess [15]: 0.098
- Bliss excess [16]: -0.0088
- Bliss excess [17]: -0.0577
- Bliss excess [18]: 0.0823
- Bliss excess [19]: -0.0191

SMILES: Cc1nc(-c2cn3c(n2)-c2ccc(-c4cnn(C(C)(C)C(N)=O)c4)cc2OCC3)n(C(C)C)n1 [Taselisib] + O=C(Nc1ccc2[nH]nc(-c3ccncc3)c2c1)[C@@H]1CCN(CC(=O)N2CCN(c3ccc(-c4ncccn4)cc3)CC2)C1 [SCH772984] (first compound max 10 µM, 7x7, partner max 5 µM)
- combination Emax [1]: 0.787
- combination Emax [2]: 0.238
- combination Emax [3]: 0.945
- combination Emax [4]: 0.643
- combination Emax [5]: 0.55
- combination Emax [6]: 0.629
- combination Emax [7]: 0.78
- Bliss excess [8]: 0.017
- Bliss excess [9]: -0.0189
- Bliss excess (NCI-H2595 (Mesothelioma)): -0.0324
- Bliss excess [10]: 0.0595
- Bliss excess [11]: 0.0774
- Bliss excess [12]: -0.0479
- Bliss excess [13]: 0.116
- Bliss excess [14]: 0.111
- Bliss excess [15]: 0.0056
- Bliss excess [16]: 0.0783
- Bliss excess [17]: 0.0724
- Bliss excess [18]: 0.126
- Bliss excess [19]: 0.0654

SMILES: C[C@@H]1COCCN1c1cc(C2([S@](C)(=N)=O)CC2)nc(-c2ccnc3[nH]ccc23)n1 [AZD6738] + Nc1ccn([C@@H]2O[C@H](CO)[C@@H](O)C2(F)F)c(=O)n1 [Gemcitabine] (first compound max 10 µM, 7x7, partner max 0.3 µM)
- combination Emax [1]: 0.747
- combination Emax [2]: 0.459
- combination Emax [3]: 0.413
- combination Emax [4]: 0.755
- combination Emax [5]: 0.973
- combination Emax [6]: 0.841
- combination Emax [7]: 0.926
- Bliss excess [8]: -0.0252
- Bliss excess [9]: 0.0057
- Bliss excess (NCI-H2595 (Mesothelioma)): 0.0326
- Bliss excess [10]: 0.0736
- Bliss excess [11]: 0.057
- Bliss excess [12]: -0.0359
- Bliss excess [13]: 0.135
- Bliss excess [14]: 0.0492
- Bliss excess [15]: 0.0816
- Bliss excess [16]: -0.0172
- Bliss excess [17]: -0.0028
- Bliss excess [18]: 0.0304
- Bliss excess [19]: 0.0963

SMILES: C=CCn1c(=O)c2cnc(Nc3ccc(N4CCN(C)CC4)cc3)nc2n1-c1cccc(C(C)(C)O)n1 [AZD1775] + Nc1ccn([C@@H]2O[C@H](CO)[C@@H](O)C2(F)F)c(=O)n1 [Gemcitabine] (first compound max 1 µM, partner max 0.3 µM)
- combination Emax [1]: 0.765
- combination Emax [2]: 0.411
- combination Emax [3]: 0.317
- combination Emax [4]: 0.684
- combination Emax [5]: 0.998
- combination Emax [6]: 0.818
- combination Emax [7]: 0.94
- Bliss excess [8]: -0.0093
- Bliss excess [9]: -0.0196
- Bliss excess (NCI-H2595 (Mesothelioma)): -0.0765
- Bliss excess [10]: 0.0686
- Bliss excess [11]: -0.0121
- Bliss excess [12]: -0.0611
- Bliss excess [13]: 0.026
- Bliss excess [14]: 0.0422
- Bliss excess [15]: 0.0306
- Bliss excess [17]: -0.0395
- Bliss excess [18]: 0.0129
- Bliss excess [19]: 0.0513

SMILES: C[C@@H]1COCCN1c1cc(C2([S@](C)(=N)=O)CC2)nc(-c2ccnc3[nH]ccc23)n1 [AZD6738] + C1CC(C1)(C(=O)[O-])C(=O)[O-].N.N.[Pt+2] [Carboplatin] (first compound max 10 µM, 7x7, partner max 10 µM)
- combination Emax [1]: 0.316
- combination Emax [3]: 0.328
- combination Emax [4]: 0.447
- combination Emax [5]: 0.61
- combination Emax [6]: 0.508
- combination Emax [7]: 0.658
- Bliss excess [8]: -0.0122
- Bliss excess [9]: -0.0879
- Bliss excess (NCI-H2595 (Mesothelioma)): -0.0413
- Bliss excess [10]: -0.0294
- Bliss excess [11]: -0.0751
- Bliss excess [12]: -0.106
- Bliss excess [13]: -0.0135
- Bliss excess [14]: -0.0194
- Bliss excess [15]: 0.0159
- Bliss excess [16]: -0.0019
- Bliss excess [17]: -0.0997
- Bliss excess [18]: -0.0292
- Bliss excess [19]: -0.0401
